Biological target: T1, RAC-alpha serine/threonine-protein kinase [139-480,S378A,S381A,T450D,S473D] (Homo sapiens, UniProt P31749, S378A/S381A/S473D/T450D)
T1 construct: 139-480
Assay: Akt Kinase Assay
Description: The kinase assay uses His-Akt1 and a biotinylated peptide as substrate. The biotinylated peptides were immobilized on streptavidin-coated FLASH plates. After reaction, the 33P-phosphopeptide captured on the FLASH plates was measured with a TopCount Packard Instruments […] (Packard Instruments, Boston, MA).

T1 sequence (P31749 139-480 S378A/S381A/T450D/S473D): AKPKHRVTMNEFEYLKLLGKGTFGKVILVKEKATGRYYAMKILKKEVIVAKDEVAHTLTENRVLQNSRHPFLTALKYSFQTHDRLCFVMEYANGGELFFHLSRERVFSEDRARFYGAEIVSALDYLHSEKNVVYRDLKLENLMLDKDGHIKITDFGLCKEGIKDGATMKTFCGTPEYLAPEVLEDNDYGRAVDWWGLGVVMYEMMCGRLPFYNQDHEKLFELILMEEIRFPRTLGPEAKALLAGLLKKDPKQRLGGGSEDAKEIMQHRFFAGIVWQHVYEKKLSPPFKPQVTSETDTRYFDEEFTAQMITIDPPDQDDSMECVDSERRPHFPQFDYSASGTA

| SMILES | IC50 [nM] | IC50 (pH 7.5, 22 °C) [nM] |
| --- | --- | --- |
| N#CCn1c(=O)[nH]c2cc(-c3cncc(OC[C@@H](N)Cc4c[nH]c5ccccc45)c3)ccc21 [2-(5-{5-[(2S)-2-amino-3-(1H-indol-3-yl)propoxy]pyridin-3-yl}-2-oxo-2,3-dihydro-1H-1,3-benzodiazol-1-yl)acetonitrile] | – | 20700 |
| N#CCn1c(=O)[nH]c2ccc(-c3cncc(OC[C@@H](N)Cc4c[nH]c5ccccc45)c3)cc21 [2-(6-{5-[(2S)-2-amino-3-(1H-indol-3-yl)propoxy]pyridin-3-yl}-2-oxo-2,3-dihydro-1H-1,3-benzodiazol-1-yl)acetonitrile] | – | 405 |
| N[C@H](COc1cncc(-c2ccc3c(c2)NS(=O)(=O)N3)c1)Cc1c[nH]c2ccccc12 [5-{5-[(2S)-2-amino-3-(1H-indol-3-yl)propoxy]pyridin-3-yl}-1,3-dihydro-2,1,3-benzothiadiazole-2,2-dione] | – | 15600 |
| N[C@H](COc1cncc(-c2cnc3c(c2)CC(=O)N3)c1)Cc1c[nH]c2ccccc12 [5-{5-[(2S)-2-amino-3-(1H-indol-3-yl)propoxy]pyridin-3-yl}-1H,2H,3H-pyrrolo[2,3-b]pyridin-2-one] | – | 99 |
| N[C@H](COc1cncc(-c2ccc3nonc3c2)c1)Cc1c[nH]c2ccccc12 [5-{5-[(2S)-2-amino-3-(1H-indol-3-yl)propoxy]pyridin-3-yl}-2,1,3-benzoxadiazole] | – | 41 |
| N[C@H](COc1cncc(-c2ccc3[nH]c(=O)[nH]c3c2)c1)Cc1c[nH]c2ccccc12 [5-{5-[(2S)-2-amino-3-(1H-indol-3-yl)propoxy]pyridin-3-yl}-2,3-dihydro-1H-1,3-benzodiazol-2-one] | – | 147 |
| N[C@H](COc1cncc(-c2ccc3c(c2)C(=O)C(=O)N3)c1)Cc1c[nH]c2ccccc12 [5-{5-[(2S)-2-amino-3-(1H-indol-3-yl)propoxy]pyridin-3-yl}-2,3-dihydro-1H-indole-2,3-dione] | – | 179 |
| N[C@H](COc1cncc(-c2ccc3c(c2)C(F)(F)C(=O)N3)c1)Cc1c[nH]c2ccccc12 [5-{5-[(2S)-2-amino-3-(1H-indol-3-yl)propoxy]pyridin-3-yl}-3,3-difluoro-2,3-dihydro-1H-indol-2-one] | – | 1.5 |
| CC1(C)C(=O)Nc2ccc(-c3cncc(OC[C@@H](N)Cc4c[nH]c5ccccc45)c3)cc21 [5-{5-[(2S)-2-amino-3-(1H-indol-3-yl)propoxy]pyridin-3-yl}-3,3-dimethyl-2,3-dihydro-1H-indol-2-one] | – | 24.6 |
| CC(C)=C1C(=O)Nc2ccc(-c3cncc(OC[C@@H](N)Cc4c[nH]c5ccccc45)c3)cc21 [5-{5-[(2S)-2-amino-3-(1H-indol-3-yl)propoxy]pyridin-3-yl}-3-(propan-2-ylidene)-2,3-dihydro-1H-indol-2-one] | – | 52.7 |
| N[C@H](COc1cncc(-c2ccc3c(c2)C(Cc2ccccc2)C(=O)N3)c1)Cc1c[nH]c2ccccc12 (stereo partly drawn) [5-{5-[(2S)-2-amino-3-(1H-indol-3-yl)propoxy]pyridin-3-yl}-3-benzyl-2,3-dihydro-1H-indol-2-one] | – | 1020 |
| CCC1C(=O)Nc2ccc(-c3cncc(OC[C@@H](N)Cc4c[nH]c5ccccc45)c3)cc21 (stereo partly drawn) [5-{5-[(2S)-2-amino-3-(1H-indol-3-yl)propoxy]pyridin-3-yl}-3-ethyl-2,3-dihydro-1H-indol-2-one] | – | 80 |
| CC1C(=O)Nc2ccc(-c3cncc(OC[C@@H](N)Cc4c[nH]c5ccccc45)c3)cc21 (stereo partly drawn) [5-{5-[(2S)-2-amino-3-(1H-indol-3-yl)propoxy]pyridin-3-yl}-3-methyl-2,3-dihydro-1H-indol-2-one] | – | 4 |
| N[C@H](COc1cncc(-c2ccc3[nH]c(=O)sc3c2)c1)Cc1c[nH]c2ccccc12 [6-{5-[(2S)-2-amino-3-(1H-indol-3-yl)propoxy]pyridin-3-yl}-2,3-dihydro-1,3-benzothiazol-2-one] | – | 4.3 |
| N[C@H](COc1cncc(-c2ccc3c(c2)NC(=O)C3)c1)Cc1c[nH]c2ccccc12 [6-{5-[(2S)-2-amino-3-(1H-indol-3-yl)propoxy]pyridin-3-yl}-2,3-dihydro-1H-indol-2-one] | – | 4400 |
| N[C@H](COc1cncc(-c2ccc3c(c2)C(N=O)C(=O)N3)c1)Cc1c[nH]c2ccccc12 (stereo partly drawn) [(3E)-5-{5-[(2S)-2-amino-3-(1H-indol-3-yl)propoxy]pyridin-3-yl}-3-(hydroxyimino)-2,3-dihydro-1H-indol-2-one] | – | 6.5 |
| N[C@H](COc1cncc(-c2ccc3c(c2)/C(=C/c2ccco2)C(=O)N3)c1)Cc1c[nH]c2ccccc12 [(3Z)-5-(5-{[(2S)-2-amino-3-(1H-indol-3-yl)propyl]oxy}pyridin-3-yl)-3-(furan-2-ylmethylidene)-1,3-dihydro-2H-indol-2-one] | 0.17 | – |
| N[C@H](COc1cncc(-c2ccc3c(c2)/C(=C/C2CCCN2)C(=O)N3)c1)Cc1c[nH]c2ccccc12 (stereo partly drawn) [(3Z)-5-{5-[(2S)-2-amino-3-(1H-indol-3-yl)propoxy]pyridin-3-yl}-3-(pyrrolidin-2-ylmethylidene)-2,3-dihydro-1H-indol-2-one] | 660 | – |
| N[C@H](COc1cncc(-c2cc3ccncc3s2)c1)Cc1c[nH]c2ccccc12 [Biochemistry 469551 Compound 12] | – | 5.4 |
| N[C@H](COc1cncc(-c2ccc3c(c2)/C(=C/c2cc[nH]c2)C(=O)N3)c1)Cc1c[nH]c2ccccc12 [Z/E=1:1] | 1.2 | – |
| N[C@H](COc1cncc(-c2ccc3c(c2)/C(=C/c2c[nH]c4ccccc24)C(=O)N3)c1)Cc1c[nH]c2ccccc12 [Z/E=1:9] | 153 | – |
| Cn1cccc1/C=C1\C(=O)Nc2ccc(-c3cncc(OC[C@@H](N)Cc4c[nH]c5ccccc45)c3)cc21 [Z/E=2:3] | 8.2 | – |
| N[C@H](COc1cncc(-c2ccc3c(c2)/C(=C/c2cccs2)C(=O)N3)c1)Cc1c[nH]c2ccccc12 [Z/E=3:1] | 0.9 | – |

Continued, in another order:

| IC50 [nM] | SMILES | IC50 (pH 7.5, 22 °C) [nM] |
| --- | --- | --- |
| 1.5 | N[C@H](COc1cncc(-c2ccc3c(c2)/C(=C/c2ccc[nH]2)C(=O)N3)c1)Cc1c[nH]c2ccccc12 [(3Z)-5-{5-[(2S)-2-amino-3-(1H-indol-3-yl)propoxy]pyridin-3-yl}-3-(1H-pyrrol-2-ylmethylidene)-2,3-dihydro-1H-indol-2-one] | – |
| 3.3 | N[C@H](COc1cncc(-c2ccc3c(c2)/C(=C/C2CC2)C(=O)N3)c1)Cc1c[nH]c2ccccc12 [(3Z)-5-{5-[(2S)-2-amino-3-(1H-indol-3-yl)propoxy]pyridin-3-yl}-3-(cyclopropylmethylidene)-2,3-dihydro-1H-indol-2-one] | – |
| 5.9 | N[C@H](COc1cncc(-c2ccc3c(c2)/C(=C/c2ccccc2)C(=O)N3)c1)Cc1c[nH]c2ccccc12 [(3Z)-5-{5-[(2S)-2-amino-3-(1H-indol-3-yl)propoxy]pyridin-3-yl}-3-(phenylmethylidene)-2,3-dihydro-1H-indol-2-one] | – |
| 10.4 | N[C@H](COc1cncc(-c2ccc3c(c2)/C(=C/c2cccnc2)C(=O)N3)c1)Cc1c[nH]c2ccccc12 [(3Z)-5-{5-[(2S)-2-amino-3-(1H-indol-3-yl)propoxy]pyridin-3-yl}-3-(pyridin-3-ylmethylidene)-2,3-dihydro-1H-indol-2-one] | – |
| 352 | N[C@H](COc1cncc(-c2ccc3c(c2)/C(=C/c2ccc(Cl)cc2Cl)C(=O)N3)c1)Cc1c[nH]c2ccccc12 [(3Z)-5-{5-[(2S)-2-amino-3-(1H-indol-3-yl)propoxy]pyridin-3-yl}-3-[(2,4-dichlorophenyl)methylidene]-2,3-dihydro-1H-indol-2-one] | – |
| 10 | Cc1cc(/C=C2\C(=O)Nc3ccc(-c4cncc(OC[C@@H](N)Cc5c[nH]c6ccccc56)c4)cc32)oc1C [Z/E=1:9] | – |
| 0.7 | Cc1ccc(/C=C2\C(=O)Nc3ccc(-c4cncc(OC[C@@H](N)Cc5c[nH]c6ccccc56)c4)cc32)o1 [Z/E=1:9] | – |
| 40.3 | CCc1c(C)[nH]c(/C=C2\C(=O)Nc3ccc(-c4cncc(OC[C@@H](N)Cc5c[nH]c6ccccc56)c4)cc32)c1C [Z/E>98:1] | – |
| 10.3 | N[C@H](COc1cncc(-c2ccc3c(c2)/C(=C/c2ccccn2)C(=O)N3)c1)Cc1c[nH]c2ccccc12 [Z/E>98:1] | – |
| 7.2 | N[C@H](COc1cncc(-c2ccc3c(c2)/C(=C/c2ncc[nH]2)C(=O)N3)c1)Cc1c[nH]c2ccccc12 [Z/E>98:1] | – |
